Here are results for 31 molecules from patent publication US20090215742A1, “AMIDE […]” (PFIZER, INC., priority 2005, published 2009).

In the assay the target is T1, HSP-90 (Homo sapiens, UniProt P07900).
T1 construct: fused on or other part: 6-His tag at the C-terminus
The assay is described as follows: HSP-90 SPA (scintillation proximity assay) competition binding assay, displacement of tritiated propyl-Geldanamycin. The following applies: for inhibition at 1 µM: read-out: % inhibition @ 1 μM; for inhibition at 10 µM: read-out: % inhibition @ 10 μM. The method, then:
Compounds of the present invention were evaluated for potency against HSP-90 using a SPA (scintillation proximity assay) competition binding assay. Briefly, either full length or N-terminal HSP-90 that contains a 6-His tag on its C-terminus binds to copper on Yttrium-silicate scintillant beads via the His-tag. Tritiated propyl-Geldanamycin (pGA), whose structure is shown below, is an analog of a natural inhibitor of HSP-90 called Geldanamycin.
Tritiated pGA, which contains a tritiated propyl-amine group added at the #17 position, binds HSP-90 and brings the isotope into proximity with the beads. […] The beta signal emitted from the isotope excites the scintillant, which creates a measurable signal. As competitive compounds are added to the assay mixture, they compete with bound tritiated pGA at the ATP-binding site on the N-terminal of HSP-90. When a compound displaces the labeled pGA, the signal is reduced (the beta-particles are no longer in proximity with the bead). This reduction in signal is used to quantify the extent to which the inhibitor/compound is competitive with pGA.
Typical reaction solutions contained 30 nM HSP-90 and 200 nM ^3H-pGA in binding buffer (100 mM Hepes, pH 7.5 and 150 mM KCl). […] Inhibitors were added to the HSP-90/^3H-pGA solutions at eleven different concentrations for Ki determinations. […] To determine percent inhibition, the compound was tested at 1 and 10 μM. The final DMSO in the samples was 4%. Copper-Ysi beads (Amersham, #RPNQ0096) that have been diluted in binding buffer were added to each well to give a final concentration of 100 μg/well. The plates were sealed, covered with a foil-covered lid and shaken for 30 minutes at room temperature. The beads were allowed to settle for 30 minutes after which the plates were counted using a Packard TopCount NXT instrument. This procedure has also been adapted for medium throughput using a Beckman Biomek FX. Samples were run in duplicate and on two separate days to assure an accurate value of Ki.
For Ki determinations, the corrected cpm's (actual cpm's minus background) were plotted vs. inhibitor concentration using GraphPad Prism software. […] The IC50 was then used to calculate the Ki by using the Cheng-Prusoff equation: […]
This is normally true when the observed IC50 is […] the HSP-90 concentration. For a tight binding inhibitor, the following equation can be applied: […]
EL and ELo are the radioligand-HSP-90 complexes in the presence and absence of inhibitor, respectively. EL/ELo represents the fractional signal in the presence of inhibitor. Io, Eo, and Lo are the inhibitor, HSP-90, and radioligand concentrations, respectively.

On to `O=C(c1cc2ccccc2cc1O)N1Cc2ccccc2C1` [Example 24, 3-(1,3-dihydro-2H-isoindol-2-ylcarbonyl)-2-naphthol], for which the inhibition at 1 µM stood at 5.4% and the inhibition at 10 µM turned out to be 34.9%.
`Cc1cccc(N2CCN(C(=O)c3ccc(O)cc3O)CC2)n1` [Example 101, 4-{[4-(6-methylpyridin-2-yl)piperazin-1-yl]carbonyl}benzene-1,3-diol]: the inhibition at 1 µM was 21.8% and the inhibition at 10 µM was 70.2%.
For `O=C(c1ccc(O)cc1O)N1CCC(c2ncccn2)CC1` [Example 86, 4-[(4-pyrimidin-2-ylpiperidin-1-yl)carbonyl]benzene-1,3-diol], in that order: 23.9% and 59.9%.
For `O=C(c1ccc(O)cc1O)N1CCOCC2(CC(c3cc(F)cc(F)c3)=NO2)C1` (stereo not shown) [Example 128, 4-{[3-(3,5-difluorophenyl)-1,7-dioxa-2,10-diazaspiro[4.6]undec-2-en-10-yl]carbonyl}benzene-1,3-diol], in that order: 31.2% and 73.1%.
Turning to `O=C(c1cccc2cccnc12)N1Cc2ccccc2C1` [Example 187, 8-(1,3-dihydro-2H-isoindol-2-ylcarbonyl) quinoline], the inhibition at 1 µM is 0%.
`O=C(c1ccc(O)cc1O)N1CCC(COc2cccc(Cl)c2)C1` (stereo not shown) [Example 87, 4-({3-[(3-chlorophenoxy)methyl]pyrrolidin-1-yl}carbonyl)benzene-1,3-diol]: the inhibition at 1 µM was 36.7% and the inhibition at 10 µM worked out at 65%.
For `O=C(c1ccc(O)cc1O)N1CCCN(c2nc3cc(Cl)ccc3o2)CC1` [Example 88, 4-{[4-(5-chloro-1,3-benzoxazol-2-yl)-1,4-diazepan-1-yl]carbonyl}benzene-1,3-diol], in that order: 4.3% and 42.9%.
The corresponding values for `O=C(c1ccc(O)cc1O)N1CCCCC1` [Example 63, 4-(piperidin-1-ylcarbonyl)benzene-1,3-diol] are 32.2% and 72%.
Regarding `O=C(c1ccc(O)cc1O)N1CCc2nnc(-c3cccc4ccccc34)n2CC1` [Example 134, (2,4-Dihydroxy-phenyl)-(3-naphthalen-1-yl-4,5,7,8-tetrahydro-1,2,3a,6-tetraaza-azulen-6-yl)-methanone], the inhibition at 1 µM was found to be 3.7% and the inhibition at 10 µM turned out to be 37.6%.
For `O=C(c1ccc(O)cc1O)N1CCc2ccccc2C1c1ccccc1` (stereo not shown) [Example 103, (2,4-Dihydroxy-phenyl)-(1-phenyl-3,4-dihydro-1H-isoquinolin-2-yl)-methanone], in that order: 64.5% and 87.8%.
For `O=C(c1ccc(O)cc1O)N1CCC(CCc2ncccn2)CC1` [Example 46, 4-{[4-(2-pyrimidin-2-ylethyl)piperidin-1-yl]carbonyl}benzene-1,3-diol], in that order: 44.9% and 77.1%.
For `CN(Cc1nnc(-c2cccc(C#N)c2)o1)C(=O)c1ccc(O)cc1O` [Example 121, N-{[5-(3-cyanophenyl)-1,3,4-oxadiazol-2-yl]methyl}-2,4-dihydroxy-N-methylbenzamide], in that order: 10.6% and 64.6%.
For `CN(CCc1ccccc1)C(=O)c1ccc(O)cc1O` [Example 108, 2,4-dihydroxy-N-methyl-N-(2-phenylethyl)benzamide], the inhibition at 1 µM was 40.5% and the inhibition at 10 µM is 83.1%.
For `O=C(c1ccc(O)cc1O)N1CCC(c2cccc(Cl)c2)C1` (stereo not shown) [Example 96, 4-{[3-(3-chlorophenyl)pyrrolidin-1-yl]carbonyl}benzene-1,3-diol], in that order: 20.8% and 67.6%.
The corresponding values for `O=C(c1cc(-c2cc[nH]n2)ccc1O)N1Cc2ccccc2C1` [Example 33, 2-(1,3-dihydro-2H-isoindol-2-ylcarbonyl)-4-(1H-pyrazol-3-yl)phenol] are 2% and 20.9%.
`O=C(c1ccc(O)cc1O)N1CCOCC2(CC(c3ccc(F)cc3)=NO2)C1` (stereo not shown) [Example 120, 4-{[3-(4-fluorophenyl)-1,7-dioxa-2,10-diazaspiro[4.6]undec-2-en-10-yl]carbonyl}benzene-1,3-diol]: the inhibition at 1 µM is 76.2% and the inhibition at 10 µM turned out to be 89.4%.
For `O=C(c1ccc(O)cc1O)N1CCC(CCc2ccccc2)C1` (stereo not shown) [Example 65, 4-{[3-(2-phenylethyl)pyrrolidin-1-yl]carbonyl}benzene-1,3-diol], in that order: 69.7% and 87%.
`O=C(c1ccc(O)cc1O)N1CCOCC(O)(COC2CCCC2)C1` (stereo not shown) [Example 61, 4-({6-[(cyclopentyloxy)methyl]-6-hydroxy-1,4-oxazepan-4-yl}carbonyl)benzene 1,3-diol]: the inhibition at 1 µM was 37.7% and the inhibition at 10 µM was 75.6%.
The corresponding values for `Cc1ccc(O)c(C(=O)N2Cc3ccccc3C2)c1` [Example 30, 2-(1,3-dihydro-2H-isoindol-2-ylcarbonyl)-4-methylphenyl] are 5.8% and 61.2%.
The corresponding values for `O=C(c1ccc(O)cc1O)N1CCC(c2ccc(F)cc2)C1` (stereo not shown) [Example 95, 4-{[3-(4-fluorophenyl)pyrrolidin-1-yl]carbonyl}benzene-1,3-diol] are 22.7% and 70.3%.
For the molecule `C[C@H](c1cccc2ccccc12)N(C)C(=O)c1ccc(O)cc1O` [Example 81, 2,4-dihydroxy-N-methyl-N-[1-(1-naphthyl)ethyl]benzamide], the inhibition at 1 µM turned out to be 29% and the inhibition at 10 µM was determined as 73.8%.
The corresponding values for `CN(Cc1nnc(-c2ccc(F)cc2)o1)C(=O)c1ccc(O)cc1O` [Example 119, N-{[5-(4-fluorophenyl)-1,3,4-oxadiazol-2-yl]methyl}-2,4-dihydroxy-N-benzamide] are 50.9% and 82.8%.
The corresponding values for `CN(C(=O)c1ccc(O)cc1O)[C@H]1CCCC[C@@H]1O` [Example 45, 2,4-dihydroxy-N-(2-hydroxycyclohexyl)-N-methylbenzamide] are 9.6% and 38.3%.
The corresponding values for `Cc1nccc(-c2ccc(O)c(C(=O)N3Cc4ccccc4C3)c2)n1` [Example 35, 2-(1,3-dihydro-2H-isoindol-2-ylcarbonyl)-4-(2-methylpyrimidin-4-yl)phenol] are 6.1% and 32.8%.
For the molecule `O=C(c1ccc(F)cc1O)N1Cc2ccccc2C1` [Example 29, 2-(1,3-dihydro-2H-isoindol-2-ylcarbonyl)-5-fluorophenyl], the inhibition at 1 µM came to 0% and the inhibition at 10 µM was found to be 26.6%.
For the molecule `CCc1nc(COCC2CCN(C(=O)c3ccc(O)cc3O)C2)no1` (stereo not shown) [Example 58, 4-[(3-{[(5-ethyl-1,2,4-oxadiazol-3-yl)methoxy]methyl}pyrrolidin-1-yl)carbonyl]benzene 1,3-diol], the inhibition at 1 µM worked out at 29.3% and the inhibition at 10 µM is 72.5%.
In the case of `O=C(c1cc(-c2ccncn2)ccc1O)N1Cc2ccccc2C1` [Example 32, 2-(1,3-dihydro-2H-isoindol-2-ylcarbonyl)-4-pyrimidin-4-ylphenyl], the inhibition at 1 µM is -11.9% and the inhibition at 10 µM turned out to be 14.2%.
For `O=C(c1ccc(O)cc1O)N1CCC(CCc2cnccn2)CC1` [Example 47, 4-{[4-(2-pyrazin-2-ylethyl)piperidin-1-yl]carbonyl}benzene-1,3-diol], the inhibition at 1 µM amounted to 43.4% and the inhibition at 10 µM amounted to 80%.
The corresponding values for `O=C(c1ccc(O)cc1O)N1CCC(c2ccccc2)(c2ccccc2)CC1` [Example 54, 4-[(4,4-diphenylpiperidin-1-yl)carbonyl]benzene-1,3-diol] are 50.3% and 85.5%.
Take `O=C(c1ccc(O)cc1O)N1CCC(O)(c2ccccc2)CC1` [Example 77, 4-[(4-hydroxy-4-phenylpiperidin-1-yl)carbonyl]benzene-1,3-diol]: the inhibition at 1 µM was 44.6% and the inhibition at 10 µM was determined as 79.6%.
`O=C(c1ccc(O)cc1O)N1CCC(CCc2cccc(Cl)c2)CC1` [Example 48, 4-({4-[2-(3-chlorophenyl)ethyl]piperidin-1-yl}carbonyl)benzene-1,3-diol]: the inhibition at 1 µM is 63.3% and the inhibition at 10 µM turned out to be 87.5%.
